Measurements: patent US20140004192A1, “PHARMACEUTICAL FORMULATIONS OF INDIBULIN AND USES THEREOF” (Ziopharm Oncology, Inc., priority 2012, published 2014)
Read-outs that look alike come from different tables or passages of the source.

Experiments:
[1] = Microcentrifuge dissolution test in model fasted duodenal solution (MFDS); type: physicochemical; settings: dosed at 200 μgA/mL
Protocol: The microcentrifuge dissolution test was performed to assess the ability of the indibulin SDD to sustain solubilized drug levels and to determine suspension stability. Using this method, 10% A HPMCAS-H(HPMCAS high grade), 15% A HPMCAS-H, 20% A HPMCAS-H, 25% A HPMCAS-H, 25% A HPMCAS-M (HPMCAS medium grade) and 50% A HPMCAS-M SDD formulations were tested. Specifically, the microcentrifuge dissolution test measures the supersaturation of drug above the crystalline solubility when dosed into the model fasted duodenal solution (MFDS).
In the microcentrifuge dissolution test, indibulin HPMCAS SDDs were each dosed into MFDS, which is 0.5% taurocholic acid, sodium salt hydrate (NaTC)/1-palmitoyl-2-oleoyl-sn-glycero-3-phosphocholine (POPC) in phosphate buffer solution (PBS, pH 6.5). In each resulted sample, the concentration of dissolved indibulin would have been 200 μg active drug per mL (200 μgA/mL), if all of the indibulin had dissolved. The samples were centrifuged at 13,000 rpm at 37° C. for 1 minute. The supernatant solution of each sample was then analyzed by HPLC. The remaining sample was mixed and allowed to stand undisturbed until next measurement was taken. […]

[2] = Rat pharmacokinetic study, first study; type: in vivo, rats (Sprague Dawley, male); settings: plasma; for bioavailability: ratio of dose-normalized AUC0-10 oral/IV
Protocol: In the first study, the crystalline indibulin, 10% A and 25% A SDDs were administered p.o. at 10 and 15 mg/kg to rats (Sprague Dawley, male) and plasma concentrations of indibulin were determined at several time points.
In particular, all rats used in this study were fasted 12 hours prior to dose, and food was returned 4 hours post dose. 10% A and 25% A indibulin HPMCAS SDD formulations (as prepared in Example 1(a)) were used in this study. Indibulin in crystalline form was suspended in 0.5% Methocel A at 10 mg/kg, and 15 mg/kg by vortexing and sonicating. The indibulin SDD formulations were made by combining 10% active indibulin SDD at 10 mg/kg and 15 mg/kg, 25% active indibulin SDD at 10 mg/kg and 15 mg/kg using a mortar with 0.5% Methocel A and using a pestle to gradually mix in to solution. There were six rats per group, all animals were weighed and dose volume calculated so that each rat received test article orally at a volume of 10 mL/kg. The first three rats in each group were bled at 0.5, 2, and 6 hours post dose; the remaining three rats in each group were bled at 1, 4, and 10 hours post dose. For blood collection at all time points all animals were anesthetized with an inhalation of 4% isoflurane and 1.5% oxygen, once it was determined that the animal was adequately anesthetized (no reaction to physical stimulation) using a capillary tube the orbital venous plexus was punctured and a volume of 1 mL of blood was collected in to a sodium heparin tube. Once the blood was collected the sodium heparin tube was inverted ten times, and placed on ice until centrifuged for 10 minutes at 2510 rpm. The plasma was decanted in to labeled Eppendorfs and stored at −80° C. until analyzed by HPLC with MS/MS Detection. All data were acquired using Applied Biosystems/MDS-Sciex Analyst Version 1.5, processed; reported using Watson Version 7.3.0.01TM, Thermo Fisher Scientific, Inc.; and are summarized in FIGS. 12 and 14 and Tables 16, 17, and 18. Table 17 is summary of maximum plasma concentrations of indibulin (Cmax), time for maximum plasma concentration to occur (tmax), and plasma area under the curve values (AUC0-t). […] Table 18 also includes comparative data for a solutol/propylene glycol indibulin formulation, administered by IV and orally.

[3] = male, Sprague Dawley, po, First Study, rat p.o. 15 mg/kg (90 mg/m^2)

Compound: O=C(Nc1ccncc1)C(=O)c1cn(Cc2ccc(Cl)cc2)c2ccccc12 [Bulk Crystalline Drug, indibulin]
- AUC90 ([1]; MFDS pH 6.5, first 90 min): 160 µg·min/mL
- C90 ([1]; concentration in MFDS at 90 min): 1 µg/mL
- C1200 ([1]; concentration in MFDS at 1200 min): 3 µg/mL
- Cmax90 ([1]; maximum concentration of indibulin in MFDS pH 6.5, first 90 min): 2000 ng/mL
- Tmax ([2]; Sprague Dawley, rat, Male S-D Rats, Oral (Gavage) 10 mg/kg): 2 h
- bioavailability ([2]; Sprague Dawley, rat, Male S-D Rats, Oral (Gavage) 15 mg/kg, read-out: F (%)): 1.5%
- half-life ([2]; Sprague Dawley, rat, Male S-D Rats, Oral (Gavage) 15 mg/kg, read-out: Terminal t1/2 (converted)): 5.9 h
- bioavailability ([2]; Sprague-Dawley, rat, Male S-D Rats, Oral (Gavage) 10 mg/kg, read-out: F (%), absolute oral bioavailability): 2.4%
- Cmax [2, 3]: 6 ng/mL
- Tmax [2, 3]: 1 h
- Cmax ([2]; male, Sprague Dawley, rat, po, 10 mg/kg, Male S-D Rats, Oral (Gavage) 10 mg/kg): 18 ng/mL
- AUC(0-t) ([2]; male, Sprague Dawley, rat, po, 10 mg/kg, Male S-D Rats, Oral (Gavage) 10 mg/kg, read-out: AUC0-10): 63.6 ng·h/mL
- AUC(0-t) ([2]; male, Sprague Dawley, rat, po, 15 mg/kg, First Study, rat p.o. 15 mg/kg (90 mg/m^2), read-out: AUC0-t): 31 ng·h/mL
- Cmax ([2]; male, Sprague Dawley, rat, po, 15 mg/kg, Male S-D Rats, Oral (Gavage) 15 mg/kg): 16.5 ng/mL
- AUC(0-t) ([2]; male, Sprague Dawley, rat, po, 15 mg/kg, Male S-D Rats, Oral (Gavage) 15 mg/kg, read-out: AUC0-10): 56.6 ng·h/mL
- Tmax ([2]; male, Sprague-Dawley, po, First Study, rat p.o. 10 mg/kg (60 mg/m^2)): 2 h
- Cmax ([2]; male, Sprague-Dawley, rat, po, 10 mg/kg, First Study, rat p.o. 10 mg/kg (60 mg/m^2)): 18 ng/mL
- AUC(0-t) ([2]; male, Sprague-Dawley, rat, po, 10 mg/kg, First Study, rat p.o. 10 mg/kg (60 mg/m^2), read-out: AUC0-t): 61 ng·h/mL
- Cmax ([2]; male, Sprague-Dawley, rat, po, 15 mg/kg, Male S-D Rats, Oral (Gavage) 15 mg/kg): 13 ng/mL
